In US20180334540A1, “Polymeric Derivative Of Macrolide Immunosuppressant” (Nippon Kayaku Kabushiki Kaisha, priority 2015, published 2018):

What was measured:
DA rats [1] = conditions: rat, in vivo, iv, 20 mg/kg
From the text: (§1) Female DA rats (Japan SLC, Inc.) were intravenously administered through the caudal vein with tacrolimus or Example 1, each once in the dosage indicated in Table 4 and Table 5, and an observation of general symptoms was made successively.

[2] = Blood concentration profile in rats; format: in vivo; conditions: female, SD, whole blood, iv, tacrolimus in rat blood, 5 mg/kg once i.v. caudal vein, Examples: tacrolimus cut out from micelles
From the text: Blood Concentration Profile in Rats
The results for Examples 1 to 4 and tacrolimus are presented in FIG. 3, and the results for Examples 5 to 8 and tacrolimus are presented in FIG. 4.

DA rats [3] = test: Test on single-dose toxicity in rats
From the text: as §1

rats = conditions: cited from earlier work

C=CC[C@@H]1/C=C(\C)C[C@H](C)C[C@H](OC)[C@H]2O[C@@](O)(C(=O)C(=O)N3CCCC[C@H]3C(=O)O[C@H](/C(C)=C/[C@@H]3CC[C@@H](O)[C@H](OC)C3)[C@H](C)[C@@H](O)CC1=O)[C@H](C)C[C@@H]2OC [Tacrolimus, tacrolimus]
general symptoms immediately after administration (DA rats [1]): a prone position, sedation, and a decrease in locomotor activity | AUC(0-inf) [2]: 5400 ng·h/mL | Cmax [2]: 2430 ng/mL | MRT inf [2]: 4.12 h | Tmax [2]: 4.98 min | half-life ([2]; read-out: T½ (converted)): 451 min | cerebral cortex pathology of dead rats (DA rats [3]; FIG. 7): neuronal vacuolation was recognized | lethal dose (DA rats [3]; single i.v. dose, female DA rats): lower than 20 mg/kg | death (DA rats [3]; single i.v. dose, tacrolimus 20 and 30 mg/kg, Example 1 20-50 mg/kg in terms of tacrolimus): half the animals in each group died | symptoms caused by intravenous administration (rats): slight respiratory distress, a decrease in locomotor activity, a prone position, stereotyped behavior
